From PMC4503722, “Novel Phenotypic Outcomes Identified for a Public Collection of Approved Drugs from a Publicly Accessible Panel of Assays” (PLoS ONE, 2015) come the findings set out here.

Read-outs that look alike come from different tables or passages of the source. A value given as a limit tells only on which side of the number the result lay.

For experiment [1], the system named is endothelial tube formation in co-cultures of ECFCs and ADSCs treated with VEGF. The experiment is described as follows: cells. Format: cell-based, human.
Another experiment relates to DLD-1. The experiment is described as follows: cells. Format: cell-based.
The target in the next experiment is T1, hGSK3b (Homo sapiens, UniProt P49841).
T1 construct: purchased Cerep (LANCE kinase assay platform, contract assay)
T1 sequence (P49841 whole entry): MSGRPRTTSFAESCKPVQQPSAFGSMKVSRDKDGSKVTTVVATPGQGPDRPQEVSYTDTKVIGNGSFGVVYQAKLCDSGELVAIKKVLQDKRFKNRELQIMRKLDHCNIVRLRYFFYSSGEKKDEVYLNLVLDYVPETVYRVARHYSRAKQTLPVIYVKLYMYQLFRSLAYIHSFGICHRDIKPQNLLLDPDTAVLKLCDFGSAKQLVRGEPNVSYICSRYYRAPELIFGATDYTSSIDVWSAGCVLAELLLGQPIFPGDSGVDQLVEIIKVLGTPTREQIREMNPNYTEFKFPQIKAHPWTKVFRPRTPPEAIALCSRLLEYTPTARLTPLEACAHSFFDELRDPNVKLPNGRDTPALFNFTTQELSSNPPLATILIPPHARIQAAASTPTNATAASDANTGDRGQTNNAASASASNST
The experiment is described as follows: Cerep LANCE kinase assay hGSK3b (S1 assay 34). In kind it is biochemical. (In general: TR-FRET usually uses a lanthanide donor and a delayed reading to cut background.)

The next experiment concerns Colo320. Nature of the experiment: cells. Format: cell-based.
The next experiment has as its target T2, hp70S6K1 (RPS6KB1) (Homo sapiens, UniProt P23443).
T2 construct: purchased Cerep (LANCE kinase assay platform, contract assay)
The experiment is described as follows: Cerep LANCE kinase assay hp70S6K1 (S1 assay 31). Format: biochemical.

Another experiment addresses T3, hFLT3 (Homo sapiens, UniProt P36888).
T3 construct: purchased Cerep (LANCE kinase assay platform, contract assay)
Nature of the experiment: Cerep LANCE kinase assay hFLT3 (S1 assay 35). Format: biochemical.

In experiment [2] the test system is HCT116 cells treated with a GSK3β inhibitor. The experiment is described as follows: cells. In kind it is cell-based.
The target in another experiment is T4, hKDR (Homo sapiens, UniProt P35968).
T4 construct: purchased Cerep (LANCE kinase assay platform, contract assay)
T4 sequence (P35968 20-1356): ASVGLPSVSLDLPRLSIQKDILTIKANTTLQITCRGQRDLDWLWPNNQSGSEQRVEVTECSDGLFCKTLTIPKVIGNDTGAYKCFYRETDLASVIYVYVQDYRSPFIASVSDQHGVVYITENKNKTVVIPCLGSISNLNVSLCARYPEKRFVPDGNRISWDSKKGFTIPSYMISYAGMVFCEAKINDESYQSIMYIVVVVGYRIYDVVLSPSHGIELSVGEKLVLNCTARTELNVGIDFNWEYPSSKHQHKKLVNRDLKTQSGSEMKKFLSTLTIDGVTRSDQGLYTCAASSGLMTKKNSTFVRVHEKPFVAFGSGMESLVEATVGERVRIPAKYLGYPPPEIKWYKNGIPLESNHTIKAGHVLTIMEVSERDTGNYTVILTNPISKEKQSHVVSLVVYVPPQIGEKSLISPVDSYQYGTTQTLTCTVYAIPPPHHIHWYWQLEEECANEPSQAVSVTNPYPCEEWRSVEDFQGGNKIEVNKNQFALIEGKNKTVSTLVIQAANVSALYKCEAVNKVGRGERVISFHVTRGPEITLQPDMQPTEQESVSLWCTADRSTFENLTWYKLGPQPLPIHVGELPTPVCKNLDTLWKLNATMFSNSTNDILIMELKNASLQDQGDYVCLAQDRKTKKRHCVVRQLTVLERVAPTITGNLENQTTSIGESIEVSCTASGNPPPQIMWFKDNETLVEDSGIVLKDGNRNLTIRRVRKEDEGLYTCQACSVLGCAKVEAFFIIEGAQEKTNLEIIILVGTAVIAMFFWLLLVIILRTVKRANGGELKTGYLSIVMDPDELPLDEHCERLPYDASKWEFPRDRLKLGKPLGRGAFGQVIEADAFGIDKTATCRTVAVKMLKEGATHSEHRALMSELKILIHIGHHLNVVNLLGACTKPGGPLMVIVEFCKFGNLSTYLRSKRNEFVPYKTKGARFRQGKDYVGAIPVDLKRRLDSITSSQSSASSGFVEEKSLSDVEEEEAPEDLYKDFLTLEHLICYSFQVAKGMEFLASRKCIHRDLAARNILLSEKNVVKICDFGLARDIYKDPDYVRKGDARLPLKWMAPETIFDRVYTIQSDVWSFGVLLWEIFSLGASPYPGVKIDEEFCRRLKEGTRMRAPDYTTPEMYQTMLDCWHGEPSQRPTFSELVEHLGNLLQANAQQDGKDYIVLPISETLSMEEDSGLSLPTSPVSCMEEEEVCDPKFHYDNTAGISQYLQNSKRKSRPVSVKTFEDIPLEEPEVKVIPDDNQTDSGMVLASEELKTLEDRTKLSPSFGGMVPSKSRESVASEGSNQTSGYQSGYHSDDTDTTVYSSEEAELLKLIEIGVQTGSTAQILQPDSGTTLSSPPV
The experiment is described as follows: Cerep LANCE kinase assay hKDR (S1 assay 32). Format: biochemical.

The subject of the next experiment is HCT116. Nature of the experiment: cells. Format: cell-based.
Experiment [3] relates to ECFC/ADSC co-culture cell nuclei number. As to conditions: read-out: VEGF_ADSC\ECFC Angio Hoechst NucArea summarized IC50.
In the next experiment the test system is HeLa cells. The experiment is described as follows: cells. In kind it is cell-based. The following applies: for EC50: HeLa, read-out: CellCycle G2/M.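 On Hela CellCycMod PI 4N summarized IC50: value tracks stimulation of 4N DNA content.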
Experiment [4] concerns nuclear β-catenin in C2C12 cells. The experiment is described as follows: cells. In kind it is cell-based.
The subject of the next experiment is INS-1E cells. Nature of the experiment: cells. Format: cell-based, rat.
Another experiment relates to NCI-H716 cells. The experiment is described as follows: cells. Format: cell-based, Human.
The next experiment relates to SW480. The experiment is described as follows: cells. In kind it is cell-based.
The next experiment has as its system SNU-C1. The experiment is described as follows: cells. Format: cell-based.
The test system of the next experiment is HT-29. Nature of the experiment: cells. In kind it is cell-based. As to conditions: HT-29, read-out: Basal_Viability ATP HT-29.
For a further experiment, the system named is RKO. The experiment is described as follows: cells. Format: cell-based. The following applies: RKO, read-out: Basal_Viability ATP RKO.
Where [5] appears, read: Homo sapiens, DLD-1, read-out: Basal_Viability ATP DLD-1.
[6] abbreviates: Homo sapiens; read-out: Anti-Angiogenesis.
The mark [7] stands for this setting: Homo sapiens, DLD-1, basal, DLD-1, read-out: Basal_Viability ATP DLD-1.
Setting [8] is: Homo sapiens; basal; Colo 320; read-out: Basal_Viability ATP Colo 320.
[9] abbreviates: Homo sapiens, SW480, basal, SW480, read-out: Basal_Viability ATP SW480.
The mark [10] stands for this setting: Homo sapiens, SNU-C1, basal, SNU-C1, read-out: Basal_Viability ATP SNU-C1.
[11] abbreviates: Rattus norvegicus, INS-1E; read-out: Insulin Secretion.
[12] abbreviates: Homo sapiens, NCI-H716; read-out: GLP 1 Secretion.
Where [13] appears, read: Homo sapiens, HCT-116, HCT116 pretreated with GSK3b inhibitor, read-out: GSK3b inh pretreated_Viability ATP HCT116.
Setting [14] is: Homo sapiens, HCT-116, basal, HCT116, read-out: Basal_Viability ATP HCT116.
Where [15] appears, read: Homo sapiens, S2 Table, 20 = no response at highest concentration.
The mark [16] stands for this setting: Mus musculus, C2C12; read-out: Wnt Pathway.

T3 sequence (P36888 27-993): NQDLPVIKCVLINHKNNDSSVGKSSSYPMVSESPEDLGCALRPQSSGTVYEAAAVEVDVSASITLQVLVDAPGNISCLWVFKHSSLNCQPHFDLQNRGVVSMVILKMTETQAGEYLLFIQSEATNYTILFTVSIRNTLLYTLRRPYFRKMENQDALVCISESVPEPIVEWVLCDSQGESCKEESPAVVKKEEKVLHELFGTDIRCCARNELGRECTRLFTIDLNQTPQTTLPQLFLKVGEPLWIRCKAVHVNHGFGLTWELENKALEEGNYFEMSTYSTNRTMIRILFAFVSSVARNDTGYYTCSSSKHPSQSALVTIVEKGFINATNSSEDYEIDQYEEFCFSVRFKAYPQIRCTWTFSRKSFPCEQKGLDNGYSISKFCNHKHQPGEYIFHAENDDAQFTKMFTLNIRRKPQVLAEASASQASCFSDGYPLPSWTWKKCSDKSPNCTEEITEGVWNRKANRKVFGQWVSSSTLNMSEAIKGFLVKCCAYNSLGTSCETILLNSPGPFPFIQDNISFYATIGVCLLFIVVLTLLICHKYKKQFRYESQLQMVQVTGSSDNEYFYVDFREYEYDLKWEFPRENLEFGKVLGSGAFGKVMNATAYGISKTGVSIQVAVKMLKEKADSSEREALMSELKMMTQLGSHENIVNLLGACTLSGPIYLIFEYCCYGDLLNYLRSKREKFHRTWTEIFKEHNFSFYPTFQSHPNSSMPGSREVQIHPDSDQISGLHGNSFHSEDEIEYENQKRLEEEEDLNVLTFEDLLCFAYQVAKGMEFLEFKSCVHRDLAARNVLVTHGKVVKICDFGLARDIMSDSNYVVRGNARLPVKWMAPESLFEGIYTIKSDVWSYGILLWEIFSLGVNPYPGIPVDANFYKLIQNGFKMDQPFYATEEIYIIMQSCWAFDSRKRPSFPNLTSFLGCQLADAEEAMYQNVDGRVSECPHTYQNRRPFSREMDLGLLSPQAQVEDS
T2 sequence (P23443 whole entry): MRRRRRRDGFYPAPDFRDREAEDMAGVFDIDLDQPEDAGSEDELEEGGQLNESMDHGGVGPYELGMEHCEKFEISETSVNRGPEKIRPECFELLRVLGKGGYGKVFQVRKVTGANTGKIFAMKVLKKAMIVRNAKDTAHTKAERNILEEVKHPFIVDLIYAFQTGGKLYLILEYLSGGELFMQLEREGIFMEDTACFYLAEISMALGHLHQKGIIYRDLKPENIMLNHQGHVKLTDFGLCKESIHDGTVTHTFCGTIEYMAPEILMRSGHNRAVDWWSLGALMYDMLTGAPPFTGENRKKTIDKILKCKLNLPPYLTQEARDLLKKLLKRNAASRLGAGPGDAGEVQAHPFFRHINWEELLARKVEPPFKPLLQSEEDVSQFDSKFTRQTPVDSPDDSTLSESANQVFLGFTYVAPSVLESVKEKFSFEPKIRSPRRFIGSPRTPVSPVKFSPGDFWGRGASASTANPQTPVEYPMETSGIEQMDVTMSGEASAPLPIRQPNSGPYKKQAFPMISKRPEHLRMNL

In the case of `O=C(Nc1ccc([N+](=O)[O-])cc1Cl)c1cc(Cl)ccc1O` [NCGC00015735-11], the IC50 in experiment [1] (read-out: VEGF_ADSC\ECFC Angio CD31 TubeArea summarized IC50) was 112 nM; with DLD-1 (read-out: Basal_Viability ATP DLD-1 summarized IC50) it was 3.49 nM; on hGSK3b (read-out: hGSK3b LANCE summarized IC50), greater than 20000 nM; in the experiment on Colo320 (read-out: Basal_Viability ATP Colo 320 summarized IC50), 8.26 nM; at hp70S6K1 (RPS6KB1) (read-out: hp70S6K1 LANCE summarized IC50), greater than 20000 nM; at hFLT3 (read-out: hFLT3 LANCE summarized IC50), greater than 20000 nM. The IC50 in experiment [2] (read-out: GSK3b inh pretreated_Viability ATP HCT116 summarized IC50) is 2.95 nM; at hKDR (read-out: hKDR LANCE summarized IC50) it was greater than 20000 nM; with HCT116 (read-out: Basal_Viability ATP HCT116 summarized IC50), 1.44 nM; in experiment [3] it was 5810 nM; in the experiment on HeLa cells (read-out: Hela CellCycMod PI 2N summarized IC50), greater than 10000 nM; in the experiment on HeLa cells (read-out: Hela CellCycMod PI 4N summarized IC50), greater than 10000 nM. Moreover, the IC50 in the experiment on HeLa cells (read-out: Hela CellCycMod PI Cell Number summarized IC50) was 144 nM; with HeLa cells (read-out: Hela CellCycMod PI MI summarized IC50), greater than 10000 nM; in the experiment on HeLa cells (read-out: Hela CellCycMod PI S Phase summarized IC50) it was greater than 10000 nM.

For the compound `O=C(Nc1ccc([N+](=O)[O-])cc1Cl)c1cc(Cl)ccc1O` [Niclosamide], the IC50 in [1] (Homo sapiens, read-out: Anti-Angiogenesis) is 112 nM; with DLD-1 (setting [5]) it was 3.49 nM; at hGSK3b (kinase assay, read-out: GSK3b) it was greater than 20000 nM; with Colo320 (Homo sapiens, COLO 320, read-out: Basal_Viability ATP Colo 320), 8.26 nM; on hp70S6K1 (RPS6KB1) (kinase assay, read-out: p70S6K1), greater than 20000 nM; on hFLT3 (kinase assay, read-out: FLT3), greater than 20000 nM. The IC50 in experiment [2] (Homo sapiens, HCT-116, read-out: GSK3b inh pretreated_Viability ATP HCT116) was 2.95 nM; on hKDR it was greater than 20000 nM; with HCT116 (Homo sapiens, HCT-116, read-out: Basal_Viability ATP HCT116), 1.44 nM. Further, the EC50 in experiment [4] (Mus musculus, C2C12, read-out: Wnt Pathway) is 1570 nM; with INS-1E cells (Rattus norvegicus, INS-1E, read-out: Insulin Secretion), greater than 10000 nM; with NCI-H716 cells (Homo sapiens, NCI-H716, read-out: GLP 1 Secretion), greater than 10000 nM; in the experiment with HeLa cells (Homo sapiens) it was greater than 10000 nM.

With `CCCCC(CC)CNC(=N)NC(=N)NCCCCCCNC(=N)NC(=N)NCC(CC)CCCC` (stereo not drawn) [alexidine], the IC50 turned out to be 408 nM in [1] (setting [6]); 19.7 nM in the experiment with DLD-1 (setting [7]); 4.1 nM in the experiment with Colo320 (setting [8]); 333 nM with SW480 (setting [9]); 94.1 nM in the experiment on SNU-C1 (setting [10]); 30.2 nM with HT-29 (Homo sapiens, basal). Moreover, the IC50 in [2] (setting [13]) was 396 nM; in the experiment with RKO (Homo sapiens, basal), 223 nM; in the experiment with HCT116 (setting [14]), 710 nM. The EC50 was greater than 10000 nM in [4] (Mus musculus, C2C12, S2 Table; module primary assay; 20 / 20.1 codes per legend; read-out: Wnt Pathway); greater than 10000 nM in the experiment on INS-1E cells (setting [11]); greater than 10000 nM in the experiment with NCI-H716 cells (setting [12]); greater than 10000 nM in the experiment with HeLa cells (setting [15]).

Take `O=C1C2CC=CCC2C(=O)N1SC(Cl)(Cl)Cl` (stereo not drawn) [captan]: the IC50 in experiment [1] (setting [6]) is greater than 10000 nM; in the experiment on DLD-1 (setting [7]), 348 nM; in the experiment with Colo320 (setting [8]), 306 nM; in the experiment on SW480 (setting [9]), 78.8 nM; in the experiment on SNU-C1 (setting [10]) it was 903 nM; in the experiment on HT-29 (Homo sapiens, basal), 500 nM. In addition, the IC50 in experiment [2] (setting [13]) was found to be 2210 nM; with RKO (Homo sapiens, basal), 402 nM; in the experiment with HCT116 (setting [14]), 1760 nM. Moreover, the EC50 was 511 nM in experiment [4] (setting [16]), greater than 10000 nM with INS-1E cells (setting [11]), greater than 10000 nM in the experiment on NCI-H716 cells (setting [12]) and greater than 10000 nM in the experiment on HeLa cells (setting [15]).

As to `CCCCCCCCCCCC[N+](C)(C)Cc1ccccc1` [dimethyldodecylbenzylammonium], the IC50 was greater than 10000 nM in [1] (read-out: Anti-Angiogenesis); 738 nM in the experiment on DLD-1 (basal, DLD-1, read-out: Basal_Viability ATP DLD-1); 8990 nM in the experiment on Colo320 (basal; Colo 320; read-out: Basal_Viability ATP Colo 320); 7950 nM with SW480 (basal, SW480, read-out: Basal_Viability ATP SW480); 20 nM with SNU-C1 (basal, SNU-C1, read-out: Basal_Viability ATP SNU-C1); 465 nM in the experiment with HT-29 (basal). The IC50 in experiment [2] (HCT116 pretreated with GSK3b inhibitor, read-out: GSK3b inh pretreated_Viability ATP HCT116) is greater than 20000 nM; in the experiment on RKO (basal), 3070 nM; in the experiment on HCT116 (basal, HCT116, read-out: Basal_Viability ATP HCT116), 1960 nM. In addition, the EC50 in experiment [4] (S2 Table; module primary assay; 20 / 20.1 codes per legend; read-out: Wnt Pathway) is greater than 10000 nM; in the experiment with INS-1E cells (S2 Table; module primary assay; 20 / 20.1 codes per legend; read-out: Insulin Secretion), greater than 10000 nM; in the experiment on NCI-H716 cells (S2 Table; module primary assay; 20 / 20.1 codes per legend; read-out: GLP 1 Secretion), greater than 10000 nM; in the experiment on HeLa cells (S2 Table, 20 = no response at highest concentration), greater than 10000 nM.

Take `CC(=O)O[C@@]12CO[C@@H]1C[C@H](O)[C@@]1(C)C(=O)[C@H](O)C3=C(C)[C@@H](OC(=O)[C@H](O)[C@@H](NC(=O)OC(C)(C)C)c4ccccc4)C[C@@](O)([C@@H](OC(=O)c4ccccc4)[C@H]21)C3(C)C` [docetaxel]: the IC50 in experiment [1] (Homo sapiens, IC50 / EC50; endothelial tube area, ADSC/ECFC co-culture; read-out: Anti-Angiogenesis) was 1 nM; in the experiment on DLD-1 (Homo sapiens, DLD-1, basal, read-out: Basal_Viability ATP DLD-1), 8200 nM; with Colo320 (Homo sapiens, COLO 320; read-out: Basal_Viability ATP Colo 320), 1 nM; in the experiment on SW480 (Homo sapiens, SW480, basal, read-out: Basal_Viability ATP SW480), 1 nM; in the experiment on SNU-C1 (Homo sapiens, SNU-C1, basal, read-out: Basal_Viability ATP SNU-C1), greater than 20000 nM; in the experiment with HT-29 (Homo sapiens), 1 nM. Besides, the IC50 in experiment [2] (Homo sapiens, HCT-116, GSK3b inhibitor pretreated, read-out: GSK3b inh pretreated_Viability ATP HCT116) turned out to be 1 nM; in the experiment with RKO (Homo sapiens), 1 nM; in the experiment on HCT116 (Homo sapiens, HCT-116, basal, read-out: Basal_Viability ATP HCT116) it was 1 nM. In addition, the EC50 was 65.2 nM in experiment [4] (Mus musculus, C2C12, IC50 / EC50; C2C12 beta-catenin translocation; read-out: Wnt Pathway); greater than 10000 nM with INS-1E cells (Rattus norvegicus; IC50 / EC50; INS-1E; read-out: Insulin Secretion); greater than 10000 nM with NCI-H716 cells (Homo sapiens; IC50 / EC50; NCI-H716; read-out: GLP 1 Secretion); 3.35 nM with HeLa cells (Homo sapiens, IC50 / EC50).

As for `COc1cccc2c1C(=O)c1c(O)c3c(c(O)c1C2=O)C[C@@](O)(C(=O)CO)C[C@@H]3O[C@H]1C[C@H](N)[C@H](O[C@@H]2CCCCO2)[C@H](C)O1` [pirarubicin], the IC50 in experiment [1] (setting [6]) was 6.3 nM; in the experiment with DLD-1 (setting [5]) it was 8950 nM; in the experiment on Colo320 (setting [8]), 2010 nM; in the experiment with SW480 (Homo sapiens, SW480, read-out: Basal_Viability ATP SW480), 7820 nM; with SNU-C1 (Homo sapiens, SNU-C1, read-out: Basal_Viability ATP SNU-C1) it was 9260 nM; in the experiment on HT-29 (Homo sapiens, basal), greater than 20000 nM. Further, the IC50 was 1280 nM in experiment [2] (setting [13]); 1010 nM in the experiment with RKO (Homo sapiens, basal); 911 nM in the experiment on HCT116 (setting [14]). For the same compound, the EC50 in [4] (setting [16]) is 3950 nM; in the experiment on INS-1E cells (setting [11]), greater than 10000 nM; in the experiment on NCI-H716 cells (setting [12]) it was greater than 10000 nM; in the experiment with HeLa cells (setting [15]), 80.6 nM.
